Measured values taken from patent US6916843B1, “Anti-inflammatory actions of cytochrome P450 expoxygenase-derived eicosanoids” (The United States of America as represented by the …, priority 1999, dated 2005).
Entries after “also recorded” stand apart in the source; their conditions may differ. Peptide text beside a SMILES is read from it. * marks the point of attachment. Cbz = O=C(OCc1ccccc1)*

Columns and labels:
IκB-α = assay: Fate of IκB-α after TNF-α stimulation of human endothelial cells; type: cell-based; settings: TNF-α 10 ng/ml, 15 min; EET 100 nM
Text: Co-treatment with [11,12]-EET prevented the nuclear accumulation of RelA. Since the nuclear translocation of RelA requires the degradation of its endogenous cytoplasmic inhibitor, inhibitor kappa B (IκB-α), we followed the fate of IκB-α after TNF-α stimulation in the presence or absence of [11,12]-EET. Stimulation of human endothelial cells with TNF-α caused a rapid and almost complete disappearance of IκB-α which was prevented by co-treatment with [11,12]-EET, but not [14,15]-EET.
A set of gel shift assays was performed. […] In some assays, [11,12]-EET (100 nM) was also added directly to the IKK assay (in vitro). As a control for nonspecific phosphorylation, the assay was performed without the addition of immunoprecipitated IKK (no enzyme) or in the presence of a IκB-α mutant (ΔSer 32, Ser 36→Thr) as substrate. The assay was performed three times with similar results.
Specificity of IKB was determined by the complete absence of phosphorylation when the mutated IκB-α substrate, GST-1κB-α (Δ32,36: S→T) which cannot be phosphorylated at serine residues 32 and 36, was substituted for wild-type GST-IκB-α.

[1] = test system: bovine aortic endothelial cells (BAECs); assay: Hypoxia-reoxygenation-induced cell injury in BAECs (cell number, LDH release, trypan blue); type: cell-based; settings: 1 μmol/L, added 10 min prior to hypoxia (24 h hypoxia, 4 h reoxygenation)
Procedure: Effects of P450-derived arachidonic acid metabolites on hypoxia-reoxygenalion-induced injury in BAECs. BAECs, either untransfected, or 48 hours after transfection with pcDNA3.1/GFP or pcDNA3.1/CYP2J2, or 10 min after treatment with eicosanoids, epoxide hydrolase inhibitors or vehicle, were exposed to hypoxia (95% nitrogen plus 5% carbon dioxide) for 24 hours, followed by reoxygenation (95% air plus 5% carbon dioxide) for 4 hours using an environmental chamber within a 37° C. incubator. Cells maintained under continuous (28 hours) normoxic conditions served as controls.
EETs were prepared by total chemical synthesis as previously described (Corey el al., 102 J. Am. Chem. Soc. 1433-1435 (1980), Falck et al., 23 Tetrahedron Lett. 1755-1756 (1982)). DHETs were prepared by chemical hydration of EETs as described by Capdevila et al., 187 Methods Enzymol. 386-394 (1990). Synthetic EETs and DHETs were purified by reverse-phase HPLC prior to use. BAECs, grown to ˜85% confluency, were treated with either synthetic [11,12]-EET, [11,12]-DHET, or [14,15]-EET in ethanol vehicle (1 μmol/L each, final concentration) for 10 min prior to exposure to hypoxia-reoxygenation. […] Cells treated with vehicle alone served as controls.
After hypoxia-reoxygenation, the cell number was determined using a hemocytometer and the degree of cell injury was assessed by measuring lactate dehydrogenase release into the culture medium using the CytoTox 96 Non-Radioactive Cytotoxicity Assay Kit (Promega, Madison, Wis.) and by counting the number of trypan blue dye stained cells. Data are expressed as a percentage of values obtained from control cells maintained under normoxic conditions.

[2] = test system: mononuclear cell adhesion to carotid artery; assay: TNF-α-induced mononuclear cell (U937) adhesion in the murine carotid artery; type: in vivo; settings: mouse, intra-arterial infusion 100 ng/kg/min, TNF-α 10 μg/kg i.p., 5 hours
Procedure: FIG. 3A is a graph showing the expression of VCAM-1 in the murine carotid artery at 5 hours after treatment with intraperitaneal injection of TNF-α (10 μg/kg) alone or in combination with continuous intra-arterial infusion of [11,12]-EET (100 ng/kg/min). FIG. 3B is a bar graph showing the effect of [11,12]-EET on TNF-α induced mononuclear cell adhesion in the murine carotid artery. The mononuclear cells (U937) were perfused through the carotid artery at a wall shear stress of 3 dyn/cm^2. Intra-arterial infusion of vehicle (saline) or [14,15]-EET (100 ng/kg/min) had no effect. […] All experiments except the [14,15]-EET infusion were performed in duplicate.
To determine the functional relevance of EETs in vascular inflammation, we tested [11,12]-EET and its regioisomer [14,15]-EET in a recently developed in vivo model of TNF-α-induced VCAM-1 -mediated mononuclear cell adhesion in the murine carotid artery. […]
Cell rolling and adhesion were recorded on videotape using stroboscopic epifluoresence illumination with an introvital microscope (objective Zeiss 20×, 0.5 numerical aperture). […] In separate experiments, VCAM-1 expression was measured in paraffin-sections (5 μm thick) of carotid arteries harvested from mice treated in the same way. […]

VCAM-1 expression = assay: Cell-surface enzyme immunoassay of cytokine-induced VCAM-1 expression in endothelial cells; type: cell-based, human; settings: human endothelial cells, 1-100 nM, TNF-α
Procedure: FIG. 2 is a set of bar graphs of cell-surface enzyme immunoassays. […] The difference between treatment with TNF-α alone and in the presence of [11,12]-EET were statistically significant (*p<0.05, **p<0.01), OD, optical density. […] After stimulation with TNF-α (10 ng/ml) in the presence or absence of EET, promoter activity was determined relative to basal activity. *p<0.01 vs. TNF-α alone.
To determine the biological effects of EETs, we treated tumor necrosis factor alpha (TNF-α)-stimulated human endothelial cells with physiological relevant concentrations (1-100 nM) of [5,6]-EET, [8,9]-EET, [11,12]-EET, [14,15]-EET, [11,12]-DHET.

[3] = target: purified GST-IκB-α fusion protein (wild-type) (UniProt P25963)
[4] = target: mutated IκB-α substrate GST-IκB-α (Δ32,36: S→T) (UniProt P25963)
mutated IκB-α substrate GST-IκB-α (Δ32,36: S→T), sequence (P25963 other isoform, or with tags, fused parts or gaps mutant): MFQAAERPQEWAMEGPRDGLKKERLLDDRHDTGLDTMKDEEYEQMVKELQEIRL

purified GST-IκB-α fusion protein (wild-type), sequence (P25963 1-54): as the sequence (P25963 other isoform, or with tags, fused parts or gaps mutant) above, with T32S, T36S counted along it

## CC(C)C[C@@H](C=O)NC(=O)[C@H](CC(C)C)NC(=O)[C@H](CC(C)C)NC(=O)OCc1ccccc1 [MG132, reference compound] (Cbz-Leu-Leu-Leu-aldehyde)
IκB-α
  effect on TNF-α-induced disappearance/degradation of IκB-α: prevented

## CCCCCC1OC1C/C=C\C/C=C\C/C=C\CCCC(=O)O (stereo not drawn) [[14,15]-EET]
[1]
  hypoxia-reoxygenation-induced cell injury, number of trypan blue stained cells: active in attenuating; also recorded: significantly attenuates
[2]
  mononuclear cell adhesion to the vessel wall: had no effect
VCAM-1 expression
  inhibition of TNF-α-induced VCAM-1 expression (rank/words): did not inhibit

## IκB kinase (IKK) immunoprecipitated from human endothelial cells
[3]
  IKK activity (phosphorylation of GST-IκB-α substrate): Stimulation with TNF-α caused an increase in IKK activity
[4]
  IKK activity (phosphorylation of mutated substrate): complete absence of phosphorylation when the mutated IκB-α substrate, GST-1κB-α (Δ32,36: S→T) which cannot be phosphorylated at serine residues 32 and 36, was substituted for wild-type GST-IκB-α
